Measurements as given in patent US20250129095A1, “ANNULATED 2-AMINO-3-CYANO THIOPHENES AND DERIVATIVES FOR THE TREATMENT OF CANCER” (Boehringer Ingelheim Int'l GmbH Corp., priority 2021, published 2025).

Columns and labels:
[1] = molecular target: T1, KRAS (G12D)::SOS1 (Homo sapiens, UniProt P01116, G12D); assay: KRAS::SOS1 AlphaScreen binding assay, KRAS G12D; conditions: read-out: KRASG12D IC50
T1 construct: KRAS (G12D) 1-169, N-terminal 6His-tag, C-terminal avi-tag; 6His-tag (N); purchased Xtal BioStructures, Inc. (KRAS); Viva Biotech Ltd (SOS1)
T1 sequence (P01116 1-169 isoform P01116-2 G12D): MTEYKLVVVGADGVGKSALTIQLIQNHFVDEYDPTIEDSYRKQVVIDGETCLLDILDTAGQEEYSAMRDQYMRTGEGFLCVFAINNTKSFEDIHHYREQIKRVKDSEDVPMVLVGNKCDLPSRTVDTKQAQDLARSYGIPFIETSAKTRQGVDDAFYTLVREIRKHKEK
Source text: (§1) This assay can be used to examine the potency with which compounds according to the invention binding to (mutated) KRAS inhibit the protein-protein interaction between SOS1 and (mutated) KRAS e.g., KRAS WT, KRAS G12C, KRAS G12D, KRAS G12V, KRAS G13D. […] Low IC50 values in this assay setting are indicative of strong inhibition of protein-protein interaction between SOS1 and KRAS:
(§2) These assays measure the inhibitory effect of compounds on KRAS mutant protein-protein interactions using the Alpha Screen technology by Perkin Elmer
(§3) The following (mutant) enzyme forms of KRAS and interacting proteins are used in these assays at the given concentrations: • KRAS (G12D) 1-169, N-terminal 6His-tag, C-terminal avi-tag (Xtal BioStructures, Inc.); final assay concentration 10 nM and SOS1 564-1049, N-terminal 229 GST-tag, TEV cleavage site (Viva Biotech Ltd); final assay concentration 5 nM; • KRAS (G12C) 1-169, N-terminal 6His-tag for purification, cleaved off, C-terminal avi-tag, biotinylated, mutations: C51S, C80L, C118S (in house); final assay concentration 7.5 nM and SOS1 564-1049, N-terminal 229 GST-tag, TEV cleavage site (Viva Biotech Ltd); final assay concentration 5 nM; • KRAS (G12V) 1-169, N-terminal 6His-tag for purification, cleaved off, C-terminal avi-tag, biotinylated, TEV cleavage site, mutation: C118S, GDP loaded (in house); final assay concentration 10 nM and SOS1 564-1049, N-terminal 229 GST-tag, TEV cleavage site (Viva Biotech Ltd); final assay concentration 10 nM; • KRAS (G13D) 1-169, N-terminal 6His-tag for purification, cleaved off, C-terminal avi-tag, biotinylated, TEV cleavage site, mutation: C118S, GDP loaded (in house); final assay concentration 10 nM and SOS1 564-1049, N-terminal 229 GST-tag, TEV cleavage site (Viva Biotech Ltd); final assay concentration 10 nM; • KRAS (WT) 1-169, N-terminal 6His-tag for purification, cleaved off, C-terminal avi-tag, biotinylated, TEV cleavage site, mutation: C118S, GDP loaded (in house); final assay concentration 10 nM and SOS1 564-1049, N-terminal 229 GST-tag, TEV cleavage site (Viva Biotech Ltd); final assay concentration 10 nM.
(§4) Test compounds dissolved in DMSO are dispensed onto assay plates (Proxiplate 384 PLUS, white, PerkinElmer; 6008289) using an Access Labcyte Workstation with the Labcyte Echo 55×. For the chosen highest assay concentration of 100 μM, 150 nL of compound solution are transferred from a 10 mM DMSO compound stock solution. A series of eleven fivefold dilutions per compound are transferred to the assay plate, compound dilutions are tested in duplicates. DMSO are added as backfill to a total volume of 150 nL.
(§5) The assays run on a fully automated robotic system in a darkened room below 100 Lux. To 150 nl of compound dilution 10 μl of a mix including KRAS mutant protein, SOS1 (final assay concentrations see above) and GDP nucleotide (Sigma G7127; final assay concentration 10 μM) in assay buffer (1×PBS, 0.1% BSA, 0.05% Tween 20) are added into columns 1-24.
(§6) After 30 minutes incubation time 5 μl of Alpha Screen bead mix in assay buffer are added into columns 1-23. Bead mix consists of AlphaLISA Glutathione Acceptor Beads (PerkinElmer, Cat No AL109) and AlphaScreen Streptavidin Donor Beads (PerkinElmer Cat No 6760002) in assay buffer at a final assay concentration of 10 μg/ml each.
(§7) Plates are kept at room temperature in a darkened incubator. After an additional 60 minutes incubation time the signal is measured in a PerkinElmer Envision HTS Multilabel Reader using the AlphaScreen specs from PerkinElmer.
(§8) Each plate contains up to 16 wells of a negative control depending on the dilution procedure (platewise or serial) (DMSO instead of test compound; with KRAS mutant::SOS1 GDP mix and bead mix; column 23) and 16wells of a positive control (DMSO instead of test compound; with KRAS mutant::SOS1 GDP mix w/o bead mix; column 24).
(§9) As internal control known inhibitors of KRAS mutant::SOS1 interaction can be measured on each compound plate. […]

[2] = molecular target: T2, KRAS (G12C)::SOS1 (Homo sapiens, UniProt P01116, C118S/C51S/C80L/G12C); assay: KRAS::SOS1 AlphaScreen binding assay, KRAS G12C; conditions: read-out: KRASG12C IC50
T2 construct: KRAS (G12C) 1-169, N-terminal 6His-tag for purification, cleaved off; 6His-tag (N, cleaved yes); made in house
T2 sequence (P01116 1-169 isoform P01116-2 G12C/C51S/C80L/C118S): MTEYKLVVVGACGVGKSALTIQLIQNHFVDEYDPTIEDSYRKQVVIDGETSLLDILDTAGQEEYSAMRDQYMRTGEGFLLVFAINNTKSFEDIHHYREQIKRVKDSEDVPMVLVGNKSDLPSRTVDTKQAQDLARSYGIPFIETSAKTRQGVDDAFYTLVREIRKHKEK
Source text: as §1, §2, §3, §4, §5, §6, §7, §8, §9

[3] = molecular target: KRAS G12D Ba/F3 (Homo sapiens, UniProt P01116, G12D, cells depend on it); assay: Ba/F3 proliferation assay, KRAS G12D; type: cell-based; conditions: 72 h, AlamarBlue, read-out: KRAS G12D Ba/F3 IC50
KRAS G12D Ba/F3, sequence (P01116 whole entry G12D, canonical isoform): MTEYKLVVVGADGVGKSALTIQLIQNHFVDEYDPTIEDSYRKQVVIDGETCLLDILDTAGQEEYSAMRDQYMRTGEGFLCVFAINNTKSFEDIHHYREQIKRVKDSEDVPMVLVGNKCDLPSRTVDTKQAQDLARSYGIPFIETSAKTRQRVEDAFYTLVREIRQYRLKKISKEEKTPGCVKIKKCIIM
Description: Plasmids containing KRASG12 mutants(i.e. G12D, G12C, G12V) are obtained from GeneScript. To generate KRASG12-dependent Ba/F3 models, Ba/F3 cells are transduced with retroviruses containing vectors that harbor KRASG12 isoforms. Platinum-E cells (Cell Biolabs) are used for retrovirus packaging. Retrovirus is added to Ba/F3 cells. To ensure infection, 4 μg/mL polybrene is added and cells are spinfected. […] Cells with an infection efficiency of 10% to 20% are further cultivated and puromycin selection with 1 μg/mL is initiated. As a control, parental Ba/F3 cells are used to show selection status. Selection is considered successful when parental Ba/F3 cells cultures died. To evaluate the transforming potential of KRASG12 mutations, the growth medium is no longer supplemented with IL-3. Ba/F3 cells harboring the empty vector are used as a control. Approximately ten days before conducting the experiments, puromycin is left out.
Compounds are added using an Access Labcyte Workstation with a Labcyte Echo 550 or 555 accoustic dispenser. All treatments are performed in technical duplicates. […] AlamarBlue™ (ThermoFisher), a viability stain, is added and fluorescence measured in the PerkinElmer Envision HTS Multilabel Reader. The raw data are imported into and analyzed with the Boehringer Ingelheim proprietary software MegaLab (curve fitting based on the program PRISM, GraphPad Inc.).

Structure (SMILES) | IC50 [1] [nM] | IC50 [2] [nM] | GI50 [3] [nM]
C[C@H](Oc1cc(Nc2cccnn2)nc(-c2noc3c2CCC[C@@]32CCCc3sc(N)c(C#N)c32)n1)[C@@H]1CCCN1C [II-18] | 2 | 2 | 46
C[C@H](Oc1cc(OCC2(N(C)C)COC2)nc(-c2noc3c2CCC[C@@]32CCCc3sc(N)c(C#N)c32)n1)[C@@H]1CCCN1C [II-22] | 1 | 2 | 6
C[C@H](Oc1cc(OCC2(N(C)C)CC2)nc(-c2noc3c2CCC[C@@]32CCCc3sc(N)c(C#N)c32)n1)[C@@H]1CCCN1C [II-21] | 1 | 3 | 22
C[C@H](Oc1cc(Oc2cccnc2)nc(-c2onc3c2CCC[C@@]32CCCc3sc(N)c(C#N)c32)n1)[C@@H]1CCCN1C [Example I-2] | 1 | 1 | 6
C[C@H](Oc1cc(Nc2ncccn2)nc(-c2noc3c2CCC[C@@]32CCCc3sc(N)c(C#N)c32)n1)[C@@H]1CCCN1C [II-17] | 2 | 2 | 33
C[C@H](Oc1cc(Sc2ncccn2)nc(-c2onc3c2CCC[C@@]32CCCc3sc(N)c(C#N)c32)n1)[C@@H]1CCCN1C [Example I-7] | 6 | 5 | 97
C[C@H](Oc1cc(Nc2ccccn2)nc(-c2onc3c2CCC[C@@]32CCCc3sc(N)c(C#N)c32)n1)[C@@H]1CCCN1C [Example I-6] | 4 | 3 | 47
C[C@H](Oc1cc(NCC2COC2)nc(-c2noc3c2CCC[C@@]32CCCc3sc(N)c(C#N)c32)n1)[C@@H]1CCCN1C [II-11] | 1 | 2 | 28
